Literature values in patent publication US11129842B2, “Methods and compositions for treating diseases related to imbalance of essential fatty acids” (BODYBIO INC., priority 2018, dated 2021).

Tests used:
CB2 receptor = CB2 receptor (Homo sapiens, UniProt P34972)
CB1 cannabinoid receptor = CB1 cannabinoid receptor (Homo sapiens, UniProt P21554)
Sequence of CB1 cannabinoid receptor (P21554 whole entry): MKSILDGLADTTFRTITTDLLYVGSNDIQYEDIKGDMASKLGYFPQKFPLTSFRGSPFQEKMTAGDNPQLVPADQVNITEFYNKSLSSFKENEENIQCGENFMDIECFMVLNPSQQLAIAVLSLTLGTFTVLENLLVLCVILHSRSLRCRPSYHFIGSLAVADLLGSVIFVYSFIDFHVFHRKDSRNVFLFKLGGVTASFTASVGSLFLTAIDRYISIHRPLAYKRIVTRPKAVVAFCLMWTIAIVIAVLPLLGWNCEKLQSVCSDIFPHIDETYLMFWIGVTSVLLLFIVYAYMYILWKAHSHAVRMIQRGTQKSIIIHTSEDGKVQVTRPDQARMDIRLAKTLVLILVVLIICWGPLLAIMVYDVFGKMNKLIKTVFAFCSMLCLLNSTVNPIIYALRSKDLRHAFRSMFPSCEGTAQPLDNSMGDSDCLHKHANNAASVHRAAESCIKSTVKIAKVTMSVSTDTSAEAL

Sequence of CB2 receptor (P34972 whole entry): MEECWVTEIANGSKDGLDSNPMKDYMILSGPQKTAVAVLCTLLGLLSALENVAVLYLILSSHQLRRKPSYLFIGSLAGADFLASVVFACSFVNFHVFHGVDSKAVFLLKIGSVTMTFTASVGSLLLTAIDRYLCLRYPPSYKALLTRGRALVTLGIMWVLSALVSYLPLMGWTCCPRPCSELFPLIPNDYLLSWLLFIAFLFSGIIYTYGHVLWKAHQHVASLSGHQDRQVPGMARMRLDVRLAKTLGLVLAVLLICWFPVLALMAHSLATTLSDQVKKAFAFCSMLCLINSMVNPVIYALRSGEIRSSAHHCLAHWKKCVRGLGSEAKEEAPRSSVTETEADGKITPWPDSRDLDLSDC

## CCCCC/C=C\C/C=C\C/C=C\C/C=C\CCCCOC(CO)CO [Noladin ether, 2-arachidonyl glyceryl ether]
CB2 receptor
  binding to the CB2 receptor: only weakly
CB1 cannabinoid receptor
  Ki: 21.2 nM
